Source: patent US7232809B2, “Mitochondrially targeted antioxidants” (Antipodean Pharmaceuticals, Inc., priority 1997, dated 2007)
Like-named read-outs stand apart in the source and are kept apart here. One block for each compound: values may come before it.

What was measured:
[1] = tested on: rat brain homogenates; assay: Inhibition of lipid peroxidation in rat brain homogenates (TBARS assay); assay type: biochemical
Procedure: The rat brain homogenates were incubated with or without various concentrations of the test compounds (compound 1; native Vitamin E (α-tocopherol), bromobutyl triphenylphosphonium bromide, Trolox (a water soluble form of Vitamin E) and compound 2, ie2-(2-bromoethyl)-3,4-dihydro-2,5,7,8-tetramethyl-2H-1-benzopyran-6-ol, the precursor of compound 1 (“Brom Vit E”)) and the oxidative damage occurring over the incubation was quantitated using the TBARS assay (Stocks et al., 1974, Clin Sci Mol Med 47,215–222). From this the concentration of compound required to inhibit oxidative damage by 50% was determined. In this system 210 nM compound 1 inhibited oxidative stress by 50% while the corresponding value for native Vitamin E was 36 nM. The value for bromobutyltriphenylphosphonium bromide, which contains the triphenylphosphonium moiety but not the antioxidant Vitamin E moiety was 47 μM. […] Further details of the experimental procedures and results are set out below.
(§1) The IC50 values for inhibition of lipid peroxidation were determined in rat brain homogenates, and are means±SEM or range of determinations on 2–3 brain preparations. Octan-1-ol/PBS partition coefficients are means±SEM for three independent determinations. N.D. not determined. Partition coefficients were determined by mixing 200 μM of the compound in 2 ml water-saturated octanol-1-ol with 2 ml octanol-saturated-PBS at room temperature for 1 h, then the two layers were separated by brief centrifugation and their concentrations determined spectrophotometrically from standard curves prepared in PBS or octanol. To measure antioxidant efficacy four rat brains were homogenised in 15 ml 40 mM potassium phosphate (pH 7.4), 140 mM NaCl at 4° C., particulate matter was pelleted (1,000×g at 4° C. for 15 min) and washed once and the combined supernatants stored frozen. Aliquots were rapidly thawed and 5 mg protein suspended in 800 μl PBS containing antioxidant or ethanol carrier and incubated at 37° C. for 30 min. Thiobarbituric acid reactive species (TBARS) were quantitated at 532 nm by adding 200 μl conc. HClO4 and 200 μl 1% thiobarbituric acid to the incubation, heating at 100° C. for 15 min and then cooling and clarification by centrifugation (10,000×g for 2 min).

[2] = Octan-1-ol/PBS partition coefficient; assay type: physicochemical; conditions: 200 μM, room temperature, 1 h, means±SEM of three
Procedure: as §1

[3] = target: T1, beef heart mitochondrial membranes, Complex III (Bos taurus, UniProt P00157+P13272); assay: Oxidation of mitoquinol by beef heart mitochondrial membranes (Complex III) and reduction of cytochrome c; assay type: biochemical
T1 construct: from tissue; host or cells: beef heart mitochondrial membranes

[4] = tested on: rat liver mitochondria; assay: Uptake of radiolabelled mitoquinol by energised mitochondria; assay type: in vitro ADME; conditions: tritiated compound, reversed by FCCP
Procedure: The next step was to see if mitoquinol was accumulated by energised mitochondria. To do this a tritiated version of the compound was made, incubated with energised mitochondria and the amount taken up into the mitochondria determined.

[5] = tested on: rat liver mitochondria; assay: Toxicity of mitoquinol to isolated mitochondria (membrane potential, respiration rate)
Procedure: In A rat liver mitochondria energised with succinate were incubated with various concentrations of mitoquinol and the membrane potential determined as a percentage of control incubations. In B the respiration rate of succinate energised mitochondria under state 4 (black), state 3 (white) and uncoupled (stippled) conditions, as a percentage of control incubations.
The next assays were to determine the toxicity of these compounds to mitochondria and cells. To determine the toxicity to isolated mitochondria the effect on membrane potential and respiration rate were measured (FIG. 16).

[6] = Stability of the quinol form in air; assay type: physicochemical
Procedure: The quinone was reduced to the quinol by taking a mixture of crude quinone and quinol (73 mg, ca. 3:1 by 1H NMR) in methanol (1 mL) was added NaBH4 (21 mg, 0.55 mmol). The mixture was stirred slowly under an argon atmosphere for 10 min. Excess NABH4 was quenched with 5% HBr (0.2 mL) and the mixture extracted with CH2Cl2. The organic extract was washed with H2O (3×5 mL). Solvent was removed under reduced pressure, giving a mixture of quinone and quinol (ca 1:5 by ^1H NMR) as a pale yellow solid (55 mg). For routine preparation of the quinol form the ethanolic solution, dissolve in 5 vols of water, (=1 ml) add a pinch of NaBH4 leave on ice in the dark for 5 min, then extract 3×0.5 ml dichloromethane, Wash with water/HCl etc blow off in nitrogen, dissolve in same vol of etoh and take spectrum and store at −80 under argon. Yield about 70–80%. […] Collect the upper organic phase and evaporate to dryness under a stream of N2 and dissolve in 1 ml ethanol acidified to pH 2.

[7] = target: T2, beef heart mitochondrial membranes, Complex II (Bos taurus, UniProt P35720+Q3T189+Q95123); assay: Reduction of mitoquinone by beef heart mitochondrial membranes with succinate (Complex II); assay type: biochemical
T2 construct: from tissue; host or cells: beef heart mitochondrial membranes
T2 sequence (P35720 30-169): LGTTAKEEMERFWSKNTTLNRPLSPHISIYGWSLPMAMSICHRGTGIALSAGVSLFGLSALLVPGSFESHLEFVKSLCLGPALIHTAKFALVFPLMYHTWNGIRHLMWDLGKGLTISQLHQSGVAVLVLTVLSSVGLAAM
T2 sequence (Q95123 56-158): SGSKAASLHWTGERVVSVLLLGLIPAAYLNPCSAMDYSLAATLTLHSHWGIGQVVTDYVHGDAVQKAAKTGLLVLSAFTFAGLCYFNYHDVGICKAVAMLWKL
T2 sequence (Q3T189 29-280): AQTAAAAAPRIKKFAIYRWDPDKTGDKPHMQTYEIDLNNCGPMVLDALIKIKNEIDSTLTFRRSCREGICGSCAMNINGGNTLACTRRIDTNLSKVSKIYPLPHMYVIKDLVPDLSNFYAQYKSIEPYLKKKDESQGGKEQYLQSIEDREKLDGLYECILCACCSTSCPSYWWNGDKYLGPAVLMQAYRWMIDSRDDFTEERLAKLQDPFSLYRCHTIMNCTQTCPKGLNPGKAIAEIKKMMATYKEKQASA
T2 sequence (P31039 44-665 partner): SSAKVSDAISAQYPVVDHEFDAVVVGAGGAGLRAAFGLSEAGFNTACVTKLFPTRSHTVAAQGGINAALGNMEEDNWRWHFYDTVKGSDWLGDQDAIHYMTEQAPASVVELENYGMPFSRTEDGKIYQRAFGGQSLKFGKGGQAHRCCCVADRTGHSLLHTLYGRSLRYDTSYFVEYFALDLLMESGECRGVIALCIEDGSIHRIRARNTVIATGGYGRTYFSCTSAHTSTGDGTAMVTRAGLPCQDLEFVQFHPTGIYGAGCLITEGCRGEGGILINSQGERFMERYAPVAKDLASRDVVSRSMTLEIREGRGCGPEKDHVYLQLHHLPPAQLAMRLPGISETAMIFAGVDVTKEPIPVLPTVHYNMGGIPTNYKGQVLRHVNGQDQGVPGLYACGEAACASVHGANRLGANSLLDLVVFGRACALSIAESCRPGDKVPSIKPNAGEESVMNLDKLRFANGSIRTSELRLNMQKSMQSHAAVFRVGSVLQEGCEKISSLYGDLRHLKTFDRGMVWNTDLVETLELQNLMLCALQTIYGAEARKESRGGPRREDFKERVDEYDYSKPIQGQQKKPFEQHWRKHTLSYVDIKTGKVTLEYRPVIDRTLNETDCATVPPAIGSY
Procedure: FIGS. 12A to 12D show reactions of [10-(6′-ubiquinonyl)decyltriphenylphosphonium bromide] (“mitoquinone”) and the reduced form of the compound (“mitoquinol”) with mitochondrial membranes. Beef heart mitochondrial membranes (20 μg/ml) were suspended in 50 mM sodium phosphate, pH 7.2 at 20° C. In panel A rotenone and antimycin were present and for the t=0 scan, then succinate (5 mM) was added and scans repeated at 5 minute intervals as indicated. In panel B A275 was monitored in the presence of rotenone and antimycin and then mitoquinone (50 μM) was added, followed by succinate (5 mM) and malonate (20 mM) where indicated. In Panel C rotenone, ferricytochrome c (50 μM) and malonate (20 mM) were present, A275 was monitored and mitoquinol (50 μM) and myxathiazol (10 μM) were added where indicated. In panel D A550 was monitored and the experiment in Panel C was repeated in the presence of KCN. Addition of myxathiazol inhabited this rate by about 60–70%.
To determine whether the mitochondrial respiratory chain could also oxidise or reduce the compound mitoquinone was incubated with beef heart mitochondrial membranes (FIG. 12). In panel A the spectrum of fully oxidised mitoquinone in the presence of antimycin inhibited membranes is shown (t=0; FIG. 12A). Addition of succinate led to the gradual reduction of the […] as measured by repeating the measurement every five minutes and showing that the peak at 275 nm gradually disappeared, the presence of antimycin prevented the oxidation of the quinol by mitochondrial complex III.
The reduction of mitoquinone can be followed continuously at A275 nm (FIG. 12B). […] The rate of reduction of mitoquinone was 51±9.9 nmol/min/mg protein, which compares with the rate of reduction of cytochrome c by succinate in the presence of KCN of 359 nmol/min/mg. Allowing for the 2 electrons required for mitoquinone reduction compared with 1 for cytochrome c the rate of electron flux into the mitoquinone pool is of similar order to the electron flux through the respiratory chain.

[8] = tested on: pentane extracted beef heart mitochondria; assay: Reactions with pentane-extracted beef heart mitochondria; assay type: biochemical; conditions: for restoration of NADH oxidation: pentane extracted beef heart mitochondria, NADH 125 μM, 50 μM compound
Procedure: Pentane extracted beef heart mitochondria (100 μg protein/ml) were suspended in 50 mM sodium phosphate, pH 7.2 at 20° C. In Panel A NADH (125 μM) was added and A340 was monitored and ubiquinone-1 (UQ-1; 50 μM added where indicated. This was repeated in Panel b, except that mitoubiquinone (50 μM) was added. In Panel C pentane extracted mitochondria were incubated with mitoquinone (50 μM), A275 was monitored and succinate (5 mM) and malonate (20 mM) added where indicated. In Panel D pentane-extracted mitochondria were incubated with NADH (125 μM), ferricytochrome c (50 μM) and A550 was monitored and mitoquinone (50 μM) was added where indicated. Addition of myxathiazol inhibited the rate of reduction by about 60–70%;
Mitoquinone/ol may be picking up and donating electrons directly from the active sites of the respiratory complexes, or it could be equilibrating with the endogenous mitochondrial ubiquinone pool. To address this question the endogenous ubiquinone pool was removed from beef heart mitochondria by pentane extraction.

[9] = tested on: rat liver mitochondria; assay: Reduction of mitoquinone by intact mitochondria (A275); assay type: biochemical
Procedure: Rat liver mitochondria (100 μg/ml) were incubated in 120 mM KCl, 10 mM HEPES, 1 mM EGTA, pH 7.2 at 20° C. and A275 monitored. In panel A rotenone and succinate (5 mM) were present and mitoquinone (50 μM) was added where indicated. This experiment was repeated in the presence of malonate (20 mM) or FCCP ([…]). In panel B glutamate and malate (5 mM of each) were present from the start and mitoquinone (50 μM) was added where indicated. This experiment was repeated in the presence of FCCP or with rotenone and FCCP.

[10] = target: ferricytochrome c (Homo sapiens, UniProt P99999); assay: Reactions of mitoquinone in the absence of mitochondrial membranes; assay type: biochemical
Sequence of ferricytochrome c (P99999 whole entry): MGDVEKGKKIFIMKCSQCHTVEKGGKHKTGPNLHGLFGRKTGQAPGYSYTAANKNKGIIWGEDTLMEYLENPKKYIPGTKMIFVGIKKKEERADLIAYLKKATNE
Procedure: FIGS. […] In panel A rotenone and antimycin were present and for the t=0 scan, then succinate (5 mM) was added and scans repeated at 5 minute intervals as indicated. In panel B A275 was monitored in the presence of rotenone and antimycin and then mitoquinone (50 μM) was added, followed by succinate (5 mM) and malonate (20 mM) where indicated. In Panel C rotenone, ferricytochrome c (50 μM) and malonate (20 mM) were present, A275 was monitored and mitoquinol (50 μM) and myxathiazol (10 μM) were added where indicated. In panel D A550 was monitored and the experiment in Panel C was repeated in the presence of KCN. Addition of myxathiazol inhabited this rate by about 60–70%.

[11] = tested on: rat liver mitochondria
[12] = TBARS, read-out: concentration that inhibited oxidative stress by 50%
[13] = means±SEM or range, 2–3 brain preparations, read-out: IC50 for inhibition of lipid peroxidation

IC50 [1, 12]: 0.036 µM
Octanol:PBS partition coefficient [2]: 27.4 ± 1.0
Compound: Cc1c(C)c2c(c(C)c1O)CC[C@@](C)(CCC[C@H](C)CCC[C@H](C)CCCC(C)C)O2 [α-Tocopherol, α-tocopherol]

IC50 [1, 13]: 18.5 ± 5.9 µM
Compound: Cc1c(C)c2c(c(C)c1O)CCC(C)(C(=O)O)O2 (stereo not drawn) [Trolox]

IC50 [1, 12]: 47 µM
Octanol:PBS partition coefficient [2]: 3.83 ± 0.22
Compound: BrCCCC[P+](c1ccccc1)(c1ccccc1)c1ccccc1.[Br-] [BrBTP, bromobutyltriphenylphosphonium bromide]

IC50 [1, 13]: 0.045 ± 0.026 µM
Octanol:PBS partition coefficient [2]: 33.1 ± 4.4
Compound: Cc1c(C)c2c(c(C)c1O)CCC(C)(CCBr)O2 (stereo not drawn) [Bromo Vit E, 2-(2-bromoethyl)-3,4-dihydro-6-hydroxy-2,5,7,8-tetramethyl-2H-1-benzopyran]

Compound: COc1c(O)c(C)c(CCCCCCCCCC[P+](c2ccccc2)(c2ccccc2)c2ccccc2)c(O)c1OC [mitoquinol, 10-(6′-ubiquinolyl)decyltriphenylphosphonium bromide]
inhibition of rate by myxathiazol ([3]; FIG. 12 panel D, KCN present, myxathiazol 10 μM): 60–70%
initial rate of oxidation of mitoquinol ([3]; membranes inhibited with rotenone and malonate, mean of 2 +/- range): about 89±9 mmol mitoquinol/min/mg protein
initial rate of reduction of cytochrome c on addition of mitoquinol ([3]; membranes supplemented with ferricytochrome c, mean+/-range): about 93+/−13 nmol/min/mg
cytochrome c reduction not blocked by myxathiazol ([3]; myxathiazol): 30–40%
accumulation by energised mitochondria [4]: accumulated rapidly
effect on mitochondrial function ([5]; 10 μM): little effect on mitochondrial function
effect on mitochondrial function ([5]; 25 μM and above): some uncoupling and inhibition of respiration
stability in air [6]: Oxidises rapidly in air

Compound: COC1=C(OC)C(=O)C(CCCCCCCCCC[P+](c2ccccc2)(c2ccccc2)c2ccccc2)=C(C)C1=O [mitoquinone, 10-(6′-ubiquinonyl)decyltriphenylphosphonium bromide]
proportion reduced by succinate ([7]; antimycin inhibited beef heart membranes, succinate 5 mM): about 23%
Eh corresponding to proportion reduced ([7]; equilibration with succinate/fumarate couple): about +8 mV
rate of reduction of mitoquinone ([7]; rotenone inhibited membranes, succinate): 51±9.9 nmol/min/mg protein
restoration of NADH oxidation [8]: restored NADH oxidation
inhibition of NADH-ferricytochrome c activity by myxathiazol ([8]; pentane extracted mitochondria, mitoquinone 50 μM): 60–70%
reduction by intact energised mitochondria ([9]; rat liver mitochondria, 50 μM): rapidly reduced
decrease of rate of reduction with FCCP ([9]; uncoupler FCCP present): 2–3 fold
reaction on mixing with 50 μM ferricytochrome c ([10]; 50 μM, A550): some reduction of A550
reaction with succinate or NADH in the absence of mitochondrial membranes ([10]; no membranes): no reaction

proportion membrane-bound within mitochondria [11]: About 60%
Compound: C[P+](c1ccccc1)(c1ccccc1)c1ccccc1 [TPMP, methyltriphenylphosphonium, reference compound]
change in A275 ([9]; 50 μM added instead of mitoquinone): did not lead to changes in A275

Compound: COC1=C(OC)C(=O)C(CC=C(C)C)=C(C)C1=O [ubiquinone-1, reference compound]
restoration of NADH oxidation [8]: partially restored
